Data reported in the supplement of paper PMC10883282.

Columns and labels:
Assay in all cases: relative viability vs DMSO control (72 h) (fraction); higher = more viable cells
[1] = test system: SK-LMS-1
How it was run: (§1)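 Sarcoma cell lines went into 384-well plates at densities chosen to reach 80–90% confluence. After 24 h, each well received 2.5 µl of serially diluted compound, with source plates running from 10 mM to 0.0002 mM, and the plates were kept 72 h at 37 °C, 5% CO2, alongside 0.1% DMSO vehicle and a 5 µM positive control. Relative viability was derived from ATPLite readings as percent growth and averaged over up to triplicate wells. The data were then rescaled so that 1 stands for full and 0 for none.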

[2] = test system: VA-ES-BJ
How it was run: as §1

[3] = test system: KHOS-240S
How it was run: as §1

[4] = test system: A204
How it was run: as §1

[5] = test system: MES-SA
How it was run: as §1

[6] = test system: SW1353
How it was run: as §1

[7] = test system: SK-ES-1
How it was run: as §1

[8] = test system: RD
How it was run: as §1

[9] = test system: SW872
How it was run: as §1

[10] = test system: G401
How it was run: as §1

[11] = test system: HS729
How it was run: as §1

[12] = test system: SW982
How it was run: as §1

COc1cc2c(Oc3ccc4[nH]c(C)cc4c3F)ccnc2cc1OCC1(N)CC1 [Anlotinib]
Settings | relative viability
[1], 0.00017 µM | 1.08
[1], 0.00051 µM | 1.06
[1], 0.00152 µM | 1.08
[1], 0.00457 µM | 1.05
[1], 0.01372 µM | 1.06
[1], 0.04115 µM | 1.05
[1], 0.1235 µM | 1.04
[1], 0.3704 µM | 1.03
[1], 1.111 µM | 0.85
[1], 3.333 µM | 0.416
[1], 10 µM | 0.0427
[2], 0.00017 µM | 0.975
[2], 0.00051 µM | 0.993
[2], 0.00152 µM | 0.987
[2], 0.00457 µM | 0.979
[2], 0.01372 µM | 0.977
[2], 0.04115 µM | 0.978
[2], 0.1235 µM | 0.997
[2], 0.3704 µM | 1.022
[2], 1.111 µM | 0.983
[2], 3.333 µM | 0.62
[2], 10 µM | 0.505
[3], 0.00017 µM | 1.06
[3], 0.00051 µM | 1.049
[3], 0.00152 µM | 1.04
[3], 0.00457 µM | 1.06
[3], 0.01372 µM | 1.05
[3], 0.04115 µM | 1.04
[3], 0.1235 µM | 1.03
[3], 0.3704 µM | 0.993
[3], 1.111 µM | 0.892
[3], 3.333 µM | 0.464
[3], 10 µM | 0.122
[4], 0.00017 µM | 1.08
[4], 0.00051 µM | 1.08
[4], 0.00152 µM | 1.05
[4], 0.00457 µM | 1.05
[4], 0.01372 µM | 1.05
[4], 0.04115 µM | 0.997
[4], 0.1235 µM | 0.829
[4], 0.3704 µM | 0.475
[4], 1.111 µM | 0.36
[4], 3.333 µM | 0.18
[4], 10 µM | 0.0656
[5], 0.00017 µM | 0.921
[5], 0.00051 µM | 0.9145
[5], 0.00152 µM | 0.918
[5], 0.00457 µM | 0.9154
[5], 0.01372 µM | 0.947
[5], 0.04115 µM | 0.949
[5], 0.1235 µM | 0.924
[5], 0.3704 µM | 0.951
[5], 1.111 µM | 0.841
[5], 3.333 µM | 0.271
[5], 10 µM | 0.115
[6], 0.00017 µM | 0.9631
[6], 0.00051 µM | 0.99
[6], 0.00152 µM | 0.985
[6], 0.00457 µM | 0.99
[6], 0.01372 µM | 0.95
[6], 0.04115 µM | 0.976
[6], 0.1235 µM | 0.9632
[6], 0.3704 µM | 0.937
[6], 1.111 µM | 0.88
[6], 3.333 µM | 0.551
[6], 10 µM | 0.254
[7], 0.00017 µM | 1.05
[7], 0.00051 µM | 1.053
[7], 0.00152 µM | 1.04
[7], 0.00457 µM | 1.03
[7], 0.01372 µM | 1.07
[7], 0.04115 µM | 1.09
[7], 0.1235 µM | 1.09
[7], 0.3704 µM | 1.07
[7], 1.111 µM | 0.958
[7], 3.333 µM | 0.104
[7], 10 µM | 0.0396
[8], 0.00017 µM | 1.06
[8], 0.00051 µM | 1.06
[8], 0.00152 µM | 1.08
[8], 0.00457 µM | 1.07
[8], 0.01372 µM | 1.06
[8], 0.04115 µM | 1.09
[8], 0.1235 µM | 1.07
[8], 0.3704 µM | 1.04
[8], 1.111 µM | 0.946
[8], 3.333 µM | 0.594
[8], 10 µM | 0.217
[9], 0.00017 µM | 0.962
[9], 0.00051 µM | 1.01
[9], 0.00152 µM | 0.985
[9], 0.00457 µM | 1
[9], 0.01372 µM | 1.02
[9], 0.04115 µM | 0.996
[9], 0.1235 µM | 1.01
[9], 0.3704 µM | 1
[9], 1.111 µM | 0.957
[9], 3.333 µM | 0.676
[9], 10 µM | 0.437
[10], 0.00017 µM | 0.964
[10], 0.00051 µM | 0.986
[10], 0.00152 µM | 1.01
[10], 0.00457 µM | 0.988
[10], 0.01372 µM | 0.976
[10], 0.04115 µM | 0.982
[10], 0.1235 µM | 0.955
[10], 0.3704 µM | 0.89
[10], 1.111 µM | 0.773
[10], 3.333 µM | 0.445
[10], 10 µM | 0.163
[11], 0.00017 µM | 0.944
[11], 0.00051 µM | 0.908
[11], 0.00152 µM | 0.951
[11], 0.00457 µM | 0.917
[11], 0.01372 µM | 0.935
[11], 0.04115 µM | 0.909
[11], 0.1235 µM | 0.911
[11], 0.3704 µM | 0.795
[11], 1.111 µM | 0.769
[11], 3.333 µM | 0.678
[11], 10 µM | 0.383
[12], 0.00017 µM | 1.034
[12], 0.00051 µM | 1.04
[12], 0.00152 µM | 1.01
[12], 0.00457 µM | 1.05
[12], 0.01372 µM | 1.06
[12], 0.04115 µM | 1.06
[12], 0.1235 µM | 1.05
[12], 0.3704 µM | 0.997
[12], 1.111 µM | 0.956
[12], 3.333 µM | 0.544
[12], 10 µM | 0.206
